From US20240360082A1, “SUBSTITUTED PYRIDONE COMPOUNDS USEFUL TO TREAT ORTH[…]” (priority 2021, published 2024)
Read-outs that look alike come from different tables or passages of the source.

Target: influenza A virus minigenome (PB2, PB1, PA, NP proteins) (UniProt P04665)
Assay type: cell-based

Sequence of influenza A virus minigenome (PB2, PB1, PA, NP proteins) (P04665 whole entry): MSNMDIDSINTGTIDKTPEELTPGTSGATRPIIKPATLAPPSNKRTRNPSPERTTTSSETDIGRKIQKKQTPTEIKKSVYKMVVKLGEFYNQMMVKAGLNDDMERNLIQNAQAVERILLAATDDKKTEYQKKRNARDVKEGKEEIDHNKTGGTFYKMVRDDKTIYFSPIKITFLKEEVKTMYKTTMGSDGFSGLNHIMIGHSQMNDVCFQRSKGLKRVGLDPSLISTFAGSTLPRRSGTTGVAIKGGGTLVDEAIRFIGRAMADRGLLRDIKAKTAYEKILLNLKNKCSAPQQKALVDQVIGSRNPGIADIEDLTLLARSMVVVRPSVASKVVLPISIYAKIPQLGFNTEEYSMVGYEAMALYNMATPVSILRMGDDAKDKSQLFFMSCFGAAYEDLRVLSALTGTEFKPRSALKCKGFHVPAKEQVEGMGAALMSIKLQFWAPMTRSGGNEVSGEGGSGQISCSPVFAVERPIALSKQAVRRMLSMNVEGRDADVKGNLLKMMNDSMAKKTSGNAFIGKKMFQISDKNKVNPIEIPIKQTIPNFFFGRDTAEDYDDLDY

Question: How did the IC50 (read-out: RNP_ Hubei B IC50) turn out when `NC(=O)c1cc(-c2ccc(OCC3COCC(COCC(F)F)O3)cc2)c(C(F)(F)F)[nH]c1=O` (single isomer, unassigned) [Example 369, 5-(4-((6-((2,2-difluoroethoxy)methyl)-1,4-dioxan-2-yl)methoxy)phenyl)-2-oxo-6-(trifluoromethyl)-1,2-dihydropyridine-3-carboxamide] was run?
Answer: 5 to 10 µM

Question: For `COC(C)(C)COCC1COCC(COc2ccc(-c3cc(C(N)=O)c(=O)[nH]c3C(F)(F)F)cc2)O1` (single isomer, unassigned) [Example 370, 5-(4-((6-((2-methoxy-2-methylpropoxy)methyl)-1,4-dioxan-2-yl)methoxy)phenyl)-2-oxo-6-(trifluoromethyl)-1,2-dihydropyridine-3-carboxamide], which IC50 (read-out: RNP_ Hubei B IC50) is on record?
Answer: 5 to 10 µM

Question: Which IC50 (read-out: RNP_ Hubei B IC50) does the source give for `COC(C)(C)COCC1COCC(COc2ccc(-c3cc(C(N)=O)c(=O)[nH]c3C(F)(F)F)cc2)O1` (single isomer, unassigned) [Example 371, 5-(4-((6-((2-methoxy-2-methylpropoxy)methyl)-1,4-dioxan-2-yl)methoxy)phenyl)-2-oxo-6-(trifluoromethyl)-1,2-dihydropyridine-3-carboxamide] here?
Answer: 5 to 10 µM

Question: Which IC50 (read-out: RNP_ Hubei B IC50) does the source give for `NC(=O)c1cc(-c2ccc(OCC3COCC(COC(F)(F)F)O3)cc2)c(C(F)(F)F)[nH]c1=O` (single isomer, unassigned) [Example 372, 2-oxo-5-(4-((6-((trifluoromethoxy)methyl)-1,4-dioxan-2-yl)methoxy)phenyl)-6-(trifluoromethyl)-1,2-dihydropyridine-3-carboxamide] here?
Answer: 1 to 5 µM

Question: For `NC(=O)c1cc(-c2ccc(OCC3COCC(COC(F)(F)F)O3)cc2)c(C(F)(F)F)[nH]c1=O` (single isomer, unassigned) [Example 373, 2-oxo-5-(4-((6-((trifluoromethoxy)methyl)-1,4-dioxan-2-yl)methoxy)phenyl)-6-(trifluoromethyl)-1,2-dihydropyridine-3-carboxamide], which IC50 (read-out: RNP_ Hubei B IC50) is on record?
Answer: 5 to 10 µM

Question: How did the IC50 (read-out: RNP_ Hubei B IC50) turn out when `NC(=O)c1cc(-c2ccc(OCC3COCC(Cn4cccc4)O3)cc2)c(C(F)(F)F)[nH]c1=O` (single isomer, unassigned) [Example 374, 5-(4-((6-((1H-pyrrol-1-yl)methyl)-1,4-dioxan-2-yl)methoxy)phenyl)-2-oxo-6-(trifluoromethyl)-1,2-dihydropyridine-3-carboxamide] was run?
Answer: 5 to 10 µM

Question: With `NC(=O)c1cc(-c2ccc(OCC3COCC(Cn4cccc4)O3)cc2)c(C(F)(F)F)[nH]c1=O` (single isomer, unassigned) [Example 375, 5-(4-((6-((1H-pyrrol-1-yl)methyl)-1,4-dioxan-2-yl)methoxy)phenyl)-2-oxo-6-(trifluoromethyl)-1,2-dihydropyridine-3-carboxamide] as the molecule, how does the IC50 (read-out: RNP_ Hubei B IC50) read?
Answer: 5 to 10 µM

Question: For `NC(=O)c1cc(-c2ccc(OCC3COCC(Cn4cccn4)O3)cc2)c(C(F)(F)F)[nH]c1=O` (single isomer, unassigned) [Example 376, 5-(4-((6-((1H-pyrazol-1-yl)methyl)-1,4-dioxan-2-yl)methoxy)phenyl)-2-oxo-6-(trifluoromethyl)-1,2-dihydropyridine-3-carboxamide], which IC50 (read-out: RNP_ Hubei B IC50) is on record?
Answer: 5 to 10 µM

Question: How did the IC50 (read-out: RNP_ Hubei B IC50) turn out when `NC(=O)c1cc(-c2ccc(OCC3COCC(Cn4cccn4)O3)cc2)c(C(F)(F)F)[nH]c1=O` (single isomer, unassigned) [Example 377, 5-(4-((6-((1H-pyrazol-1-yl)methyl)-1,4-dioxan-2-yl)methoxy)phenyl)-2-oxo-6-(trifluoromethyl)-1,2-dihydropyridine-3-carboxamide] was run?
Answer: 5 to 10 µM

Question: For `CC1(OCC2COCC(COc3ccc(-c4cc(C(N)=O)c(=O)[nH]c4C(F)(F)F)cc3)O2)COC1` (single isomer, unassigned) [Example 378], which IC50 (read-out: RNP_ Hubei B IC50) is on record?
Answer: 5 to 10 µM

Question: Which IC50 (read-out: RNP_ Hubei B IC50) does the source give for `CC1(OCC2COCC(COc3ccc(-c4cc(C(N)=O)c(=O)[nH]c4C(F)(F)F)cc3)O2)COC1` (single isomer, unassigned) [Example 379] here?
Answer: 5 to 10 µM

Question: `COCC1OC(COc2ccc(-c3cc(C(N)=O)c(=O)[nH]c3C(F)(F)F)cc2)COC1C` (single isomer, unassigned) [Example 392, 5-(4-((6-(methoxymethyl)-5-methyl-1,4-dioxan-2-yl)methoxy)phenyl)-2-oxo-6-(trifluoromethyl)-1,2-dihydropyridine-3-carboxamide] was tested. Which IC50 (read-out: RNP_ Hubei B IC50) did it give?
Answer: 5 to 10 µM

Question: How did the IC50 (read-out: RNP_ Hubei B IC50) turn out when `COCC1OC(COc2ccc(-c3cc(C(N)=O)c(=O)[nH]c3C(F)(F)F)cc2)COC1C` (single isomer, unassigned) [Example 393, 5-(4-((6-(methoxymethyl)-5-methyl-1,4-dioxan-2-yl)methoxy)phenyl)-2-oxo-6-(trifluoromethyl)-1,2-dihydropyridine-3-carboxamide] was run?
Answer: 5 to 10 µM

Question: How did the IC50 (read-out: RNP_ Hubei B IC50) turn out when `COC[C@@H]1COC[C@H](COc2ccc(-c3cc(C(N)=O)c(=O)[nH]c3C(F)(F)F)cc2)O1` (single isomer, unassigned) [Example 400] was run?
Answer: 5 to 10 µM

Question: How did the IC50 (read-out: RNP_ Hubei B IC50) turn out when `COC[C@H]1COC[C@H](COc2ccc(-c3cc(C(N)=O)c(=O)[nH]c3C(F)(F)F)cc2)O1` (single isomer, unassigned) [Example 401] was run?
Answer: 5 to 10 µM

Question: With `NC(=O)c1cc(-c2ccc(CN3CCOCC3)cc2)c(C(F)(F)F)[nH]c1=O` [Example 1, 5-(4-(morpholinomethyl)phenyl)-2-oxo-6-(trifluoromethyl)-1,2-dihydropyridine-3-carboxamide] as the molecule, how does the IC50 (read-out: RNP_Hubei B) read?
Answer: 25 to 50 µM

Question: `NC(=O)c1cc(-c2ccc(CO)cc2)c(C(F)(F)F)[nH]c1=O` [Example 2, 5-(4-(hydroxymethyl)phenyl)-2-oxo-6-(trifluoromethyl)-1,2-dihydropyridine-3-carboxamide] was tested. Which IC50 (read-out: RNP_Hubei B) did it give?
Answer: 25 to 50 µM

Question: How did the IC50 (read-out: RNP_Hubei B) turn out when `NC(=O)c1cc(-c2ccc(O)cc2)c(C(F)(F)F)[nH]c1=O` [Example 3, 5-(4-hydroxyphenyl)-2-oxo-6-(trifluoromethyl)-1,2-dihydropyridine-3-carboxamide] was run?
Answer: 25 to 50 µM

Question: Which IC50 (read-out: RNP_Hubei B) does the source give for `NC(=O)c1cc(-c2ccc(OCc3ccccc3)cc2)c(C(F)(F)F)[nH]c1=O` [Example 4, 5-(4-(benzyloxy)phenyl)-2-oxo-6-(trifluoromethyl)-1,2-dihydropyridine-3-carboxamide] here?
Answer: 5 to 10 µM

Question: For `NC(=O)c1cc(-c2ccc(CN3CCCC3)cc2)c(C(F)(F)F)[nH]c1=O` [Example 5, 2-oxo-5-(4-(pyrrolidin-1-ylmethyl)phenyl)-6-(trifluoromethyl)-1,2-dihydropyridine-3-carboxamide], which IC50 (read-out: RNP_Hubei B) is on record?
Answer: 25 to 50 µM

Question: Which IC50 (read-out: RNP_Hubei B) does the source give for `NC(=O)c1cc(-c2ccc(Oc3ccccc3)cc2)c(C(F)(F)F)[nH]c1=O` [Example 6, 2-oxo-5-(4-phenoxyphenyl)-6-(trifluoromethyl)-1,2-dihydropyridine-3-carboxamide] here?
Answer: 1 to 5 µM

Question: `NC(=O)c1cc(-c2cccc(N)c2)c(C(F)(F)F)[nH]c1=O` [Example 7, 5-(3-aminophenyl)-2-oxo-6-(trifluoromethyl)-1,2-dihydropyridine-3-carboxamide] was tested. Which IC50 (read-out: RNP_Hubei B) did it give?
Answer: 25 to 50 µM

Question: Which IC50 (read-out: RNP_Hubei B) does the source give for `NC(=O)c1cc(-c2cccc(O)c2)c(C(F)(F)F)[nH]c1=O` [Example 9, 5-(3-hydroxyphenyl)-2-oxo-6-(trifluoromethyl)-1,2-dihydropyridine-3-carboxamide] here?
Answer: 25 to 50 µM

Question: `COCOc1ccc(-c2cc(C(N)=O)c(=O)[nH]c2C(F)(F)F)cc1` [Example 13, 5-(4-(methoxymethoxy)phenyl)-2-oxo-6-(trifluoromethyl)-1,2-dihydropyridine-3-carboxamide] was tested. Which IC50 (read-out: RNP_Hubei B) did it give?
Answer: 25 to 50 µM

Question: With `COCc1ccc(-c2cc(C(N)=O)c(=O)[nH]c2C(F)(F)F)cc1` [Example 15, 5-(4-(methoxymethyl)phenyl)-2-oxo-6-(trifluoromethyl)-1,2-dihydropyridine-3-carboxamide] as the molecule, how does the IC50 (read-out: RNP_Hubei B) read?
Answer: 25 to 50 µM

Question: Which IC50 (read-out: RNP_Hubei B) does the source give for `NC(=O)c1cc(-c2ccccc2)c(C(F)(F)F)[nH]c1=O` [Example 16, 2-oxo-5-phenyl-6-(trifluoromethyl)-1,2-dihydropyridine-3-carboxamide] here?
Answer: 25 to 50 µM

Question: `CC(C)Oc1ccc(-c2cc(C(N)=O)c(=O)[nH]c2C(F)(F)F)cc1` [Example 17, 5-(4-isopropoxyphenyl)-2-oxo-6-(trifluoromethyl)-1,2-dihydropyridine-3-carboxamide] was tested. Which IC50 (read-out: RNP_Hubei B) did it give?
Answer: 10 to 25 µM

Question: Which IC50 (read-out: RNP_Hubei B) does the source give for `COc1ccc(-c2cc(C(N)=O)c(=O)[nH]c2C(F)(F)F)cc1Cl` [Example 18, 5-(3-chloro-4-methoxyphenyl)-2-oxo-6-(trifluoromethyl)-1,2-dihydropyridine-3-carboxamide] here?
Answer: 10 to 25 µM

Question: `N#CCc1ccc(-c2cc(C(N)=O)c(=O)[nH]c2C(F)(F)F)cc1` [Example 20, 5-(4-(cyanomethyl)phenyl)-2-oxo-6-(trifluoromethyl)-1,2-dihydropyridine-3-carboxamide] was tested. Which IC50 (read-out: RNP_Hubei B) did it give?
Answer: 25 to 50 µM

Question: For `CC1COCCN1Cc1ccc(-c2cc(C(N)=O)c(=O)[nH]c2C(F)(F)F)cc1` (centres unmarked) [Example 27, 5-(4-((3-methylmorpholino)methyl)phenyl)-2-oxo-6-(trifluoromethyl)-1,2-dihydropyridine-3-carboxamide], which IC50 (read-out: RNP_Hubei B) is on record?
Answer: 10 to 25 µM

Question: For `NC(=O)c1cc(-c2ccc(CN3CCSCC3)cc2)c(C(F)(F)F)[nH]c1=O` [Example 28, 2-oxo-5-(4-(thiomorpholinomethyl)phenyl)-6-(trifluoromethyl)-1,2-dihydropyridine-3-carboxamide], which IC50 (read-out: RNP_Hubei B) is on record?
Answer: 1 to 5 µM

Question: `CC1CN(Cc2ccc(-c3cc(C(N)=O)c(=O)[nH]c3C(F)(F)F)cc2)CCO1` (centres unmarked) [Example 29, 5-(4-((2-methylmorpholino)methyl)phenyl)-2-oxo-6-(trifluoromethyl)-1,2-dihydropyridine-3-carboxamide] was tested. Which IC50 (read-out: RNP_Hubei B) did it give?
Answer: 10 to 25 µM

Question: `NC(=O)c1cc(-c2ccc(CN3CCOCC34CC4)cc2)c(C(F)(F)F)[nH]c1=O` [Example 30, 5-(4-((7-oxa-4-azaspiro[2.5]octan-4-yl)methyl)phenyl)-2-oxo-6-(trifluoromethyl)-1,2-dihydropyridine-3-carboxamide] was tested. Which IC50 (read-out: RNP_Hubei B) did it give?
Answer: 5 to 10 µM

Question: How did the IC50 (read-out: RNP_Hubei B) turn out when `NC(=O)c1cc(-c2ccc(CN3C[C@H]4CC[C@@H](C3)O4)cc2)c(C(F)(F)F)[nH]c1=O` [Example 31, 5-(4-(((1R,5S)-8-oxa-3-azabicyclo[3.2.1]octan-3-yl)methyl)phenyl)-2-oxo-6-(trifluoromethyl)-1,2-dihydropyridine-3-carboxamide] was run?
Answer: 1 to 5 µM

Question: Which IC50 (read-out: RNP_Hubei B) does the source give for `NC(=O)c1cc(-c2ccc(CN3CCOCC3c3cccnc3)cc2)c(C(F)(F)F)[nH]c1=O` (centres unmarked) [Example 32, 2-oxo-5-(4-((3-(pyridin-3-yl)morpholino)methyl)phenyl)-6-(trifluoromethyl)-1,2-dihydropyridine-3-carboxamide] here?
Answer: 25 to 50 µM
